Values of other authors, collected in patent publication US20240207252A1, “AEROSOL-FORMING SUBSTRATE AND AEROSOL-GENERATING SYSTEM” (SHENZHEN FIRST UNION TECHNOLOGY CO., LTD., priority 2021, published 2024).

Conditions: single oral administration

## COC(=O)[C@@H]1[C@H]2C[C@H]3c4[nH]c5ccccc5c4CCN3C[C@@H]2CC[C@@H]1O [yohimbine, methyl 17alpha-hydroxyyohimban-16alpha-carboxylate]
  Tmax: less than 1 h
  t1/2: less than 1 h
